According to ChEMBL document CHEMBL1121753 (J Med Chem, 1981):

What was measured:
[1] = Compound was tested for dose required to kill 50 % of ADJ/PC6 mouse plasma cell tumor in a group
[2] = system: ADJ/PC6; assay: Compound was tested for dose producing 90% reduction in tumor weight, in ADJ/PC6 mouse plasma cell tumor
[3] = Therapeutic index as the ratio of LD50 to ED50 of the compound

SMILES | LD50 [1] | ED90 [2] | selectivity ratio [3]
[2H]C1([2H])CNP(=O)(N(CCCl)CCCl)OC1 (stereo unspecified) | 700 mg/kg | 12 mg/kg | 58
O=P1(N(CCCl)CCCl)NCCCO1 (stereo unspecified) [CYCLOPHOSPHAMIDE ANHYDROUS] | 260 mg/kg | 2.25 mg/kg | 116
